Values joined by “and” are separate entries in the source; they are usually repeats but may differ in a detail not shown here. Identical values can stand only once.
Experiments:
Experiment in all cases: biochemical
Format in all cases: binding
[1] = target: SfurOBP1 (Sogatella furcifera, UniProt V5T8N5); settings: OBP1, three replicate columns
Protocol: (§1) Thirty-six rice odorants ([He et al., 2014]; [Wang et al., 2017]) and 1-N-phenyl-naphthylamine (1-NPN) were purchased from Sigma-Aldrich (St Louis, MO, USA). These odorants and 1-NPN were dissolved in high-performance liquid chromatography (HPLC) purify grade methanol for 1.0 mM as work solution.
(§2) Fluorescence competitive binding assays were performed on Tecan Spark 10M (Tecan Group Ltd., Männedorf, Switzerland) with the F96 Black ELIAS Plate (Sangon) ([Khuhro et al., 2017]; [Liu et al., 2017]). The solutions were excited at 337 nm and emission spectra were recorded between 390 and 490 nm. First, to test the binding constants of 1-NPN to the SfurOBPs, a 2.0 µM solution of protein in 50 mM Tris-HCl (pH = 7.4) was titrated with 1 mM 1-NPN to achieve virous concentrations. Next, the competitive binding of each odorant was measured using the 1-NPN as fluorescent reporter and odorant as competitor. The concentrations of protein and 1-NPN were both 2.0 µM, the odorant added after protein and 1-NPN added into the well of ELIAS Plate for 2 min. The final concentrations of each competitor were 2, 4, 6, 8, 10, 12, 14, 16, 18 and 20 µM. After 2 min of odorant added, the fluorescence intensity was measured and recorded. The volume of mixed solution in each well was maintained at 250 µL. Each interaction was performed in triplicates.
(§3) GraphPad Prism 7.0 software (GraphPad Software, Inc., La Jolla, CA, USA) was used to calculated and generated the binding constants (K1−NPN) of 1-NPN to SfurOBPs and relative Scatchard plots ([Ban et al., 2003]; [Li et al., 2016]). Dissociation constant (Ki) of each odorant to SfurOBP was computed from the corresponding IC50 value (the half maximal inhibitory concentration), using the following equation: Ki=[IC50]/(1 + [1-NPN]/K1−NPN), where [1-NPN] is the free concentration of 1-NPN and K1−NPN is the dissociation constant of the complex protein/1-NPN.

[2] = target: SfurOBP11 (Sogatella furcifera, UniProt V5T6E3)
Protocol: as §1, §2, §3

[3] = target: SfurOBP2 (Sogatella furcifera, UniProt V5T759)
Protocol: as §1, §2, §3

[4] = target: SfurOBP3 (Sogatella furcifera, UniProt V5T818); settings: OBP3, three replicate columns
Protocol: as §1, §2, §3

SfurOBP2, sequence (V5T759 entry or part of it): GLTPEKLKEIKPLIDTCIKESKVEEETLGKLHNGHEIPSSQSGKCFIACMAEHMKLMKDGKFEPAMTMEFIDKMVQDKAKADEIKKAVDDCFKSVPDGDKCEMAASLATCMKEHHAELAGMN
SfurOBP3, sequence (V5T818 entry or part of it): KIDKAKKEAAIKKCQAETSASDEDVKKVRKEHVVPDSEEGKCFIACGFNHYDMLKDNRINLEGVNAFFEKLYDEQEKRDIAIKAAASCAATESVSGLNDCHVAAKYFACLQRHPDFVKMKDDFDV
SfurOBP1, sequence (V5T8N5 entry or part of it): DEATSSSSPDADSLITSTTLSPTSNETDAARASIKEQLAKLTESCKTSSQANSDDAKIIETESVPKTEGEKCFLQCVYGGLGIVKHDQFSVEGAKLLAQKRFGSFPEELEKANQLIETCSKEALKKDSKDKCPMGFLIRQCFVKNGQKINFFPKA
SfurOBP11, sequence (V5T6E3 entry or part of it): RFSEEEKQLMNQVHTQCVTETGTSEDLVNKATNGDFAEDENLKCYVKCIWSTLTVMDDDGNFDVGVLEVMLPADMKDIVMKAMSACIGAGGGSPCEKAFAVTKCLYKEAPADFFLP

In the case of `CCCCCCCCCCCCCCCC(=O)OC` [MH(methyl hexadecanoate)], the “Fluorescence competitive binding assay, fluorescence intensity” value ([1]; ligand concentration 2 (μM)) is reported as 12147 and 12451 and 12785, the “Fluorescence competitive binding assay, fluorescence intensity” value ([1]; ligand concentration 4 (μM)) is reported as 16267 and 16004 and 15123 and the “Fluorescence competitive binding assay, fluorescence intensity” value ([1]; ligand concentration 6 (μM)) is reported as 22521 and 20565 and 17849. The “Fluorescence competitive binding assay, fluorescence intensity” value ([1]; ligand concentration 8 (μM)) was 45300 and 22408 and 22243, the “Fluorescence competitive binding assay, fluorescence intensity” value ([1]; ligand concentration 10 (μM)) was 28286 and 29968 and 28368 and the “Fluorescence competitive binding assay, fluorescence intensity” value ([1]; ligand concentration 12 (μM)) was 32121 and 35150 and 30012. For the same compound, the “Fluorescence competitive binding assay, fluorescence intensity” value ([1]; ligand concentration 14 (μM)) was 38613 and 36070 and 36799, the “Fluorescence competitive binding assay, fluorescence intensity” value ([1]; ligand concentration 16 (μM)) was 34740 and 38687 and 36378 and the “Fluorescence competitive binding assay, fluorescence intensity” value ([1]; ligand concentration 18 (μM)) was 40518 and 49298 and 40325. The “Fluorescence competitive binding assay, fluorescence intensity” value ([1]; ligand concentration 20 (μM)) was 47871 and 41141 and 44944, the “Fluorescence intensity, fluorescence competitive binding assay, OBP11” value (“Fluorescence intensity … OBP11” below) ([2]; ligand concentration 2, replicate 1) was 29421 and the “Fluorescence intensity … OBP11” value ([2]; ligand concentration 2, replicate 2) was 25881. For the same compound, the “Fluorescence intensity … OBP11” value ([2]; ligand concentration 2, replicate 3) was 28224, the “Fluorescence intensity … OBP11” value ([2]; ligand concentration 4, replicate 1) was 30123 and the “Fluorescence intensity … OBP11” value ([2]; ligand concentration 4, replicate 2) was 33254. For the same compound, the “Fluorescence intensity … OBP11” value ([2]; ligand concentration 4, replicate 3) was 33112, the “Fluorescence intensity … OBP11” value ([2]; ligand concentration 6, replicate 1) was 36335 and the “Fluorescence intensity … OBP11” value ([2]; ligand concentration 6, replicate 2) was 36906. The “Fluorescence intensity … OBP11” value ([2]; ligand concentration 6, replicate 3) was 37537, the “Fluorescence intensity … OBP11” value ([2]; ligand concentration 8, replicate 1) was 38631 and the “Fluorescence intensity … OBP11” value ([2]; ligand concentration 8, replicate 2) was 37383. For the same compound, the “Fluorescence intensity … OBP11” value ([2]; ligand concentration 8, replicate 3) was 37911, the “Fluorescence intensity … OBP11” value ([2]; ligand concentration 10, replicate 1) was 41192 and the “Fluorescence intensity … OBP11” value ([2]; ligand concentration 10, replicate 2) was 43341. For the same compound, the “Fluorescence intensity … OBP11” value ([2]; ligand concentration 10, replicate 3) was 42267, the “Fluorescence intensity … OBP11” value ([2]; ligand concentration 12, replicate 1) was 42172 and the “Fluorescence intensity … OBP11” value ([2]; ligand concentration 12, replicate 2) was 43002. For the same compound, the “Fluorescence intensity … OBP11” value ([2]; ligand concentration 12, replicate 3) was 44132, the “Fluorescence intensity … OBP11” value ([2]; ligand concentration 14, replicate 1) was 50939 and the “Fluorescence intensity … OBP11” value ([2]; ligand concentration 14, replicate 2) was 48639. For the same compound, the “Fluorescence intensity … OBP11” value ([2]; ligand concentration 14, replicate 3) was 49789, the “Fluorescence intensity … OBP11” value ([2]; ligand concentration 16, replicate 1) was 53380 and the “Fluorescence intensity … OBP11” value ([2]; ligand concentration 16, replicate 2) was 53280. For the same compound, the “Fluorescence intensity … OBP11” value ([2]; ligand concentration 16, replicate 3) was 53495, the “Fluorescence intensity … OBP11” value ([2]; ligand concentration 18, replicate 1) was 69760 and the “Fluorescence intensity … OBP11” value ([2]; ligand concentration 18, replicate 2) was 71076. The “Fluorescence intensity … OBP11” value ([2]; ligand concentration 18, replicate 3) was 64769, the “Fluorescence intensity … OBP11” value ([2]; ligand concentration 20, replicate 1) was 67623 and the “Fluorescence intensity … OBP11” value ([2]; ligand concentration 20, replicate 2) was 62432. The “Fluorescence intensity … OBP11” value ([2]; ligand concentration 20, replicate 3) was 62669, the “Fluorescence competitive binding assay, OBP2 (raw fluorescence reading)” value ([3]; ligand concentration 2 (unit not given), replicate column 1 of 3) was 36028 and the “Fluorescence competitive binding assay, OBP2 (raw fluorescence reading)” value ([3]; ligand concentration 2 (unit not given), replicate column 2 of 3) was 29538. For the same compound, the “Fluorescence competitive binding assay, OBP2 (raw fluorescence reading)” value ([3]; ligand concentration 2 (unit not given), replicate column 3 of 3) was 32173, the “Fluorescence competitive binding assay, OBP2 (raw fluorescence reading)” value ([3]; ligand concentration 4 (unit not given), replicate column 1 of 3) was 32085 and the “Fluorescence competitive binding assay, OBP2 (raw fluorescence reading)” value ([3]; ligand concentration 4 (unit not given), replicate column 2 of 3) was 39967. The “Fluorescence competitive binding assay, OBP2 (raw fluorescence reading)” value ([3]; ligand concentration 4 (unit not given), replicate column 3 of 3) was 36772, the “Fluorescence competitive binding assay, OBP2 (raw fluorescence reading)” value ([3]; ligand concentration 6 (unit not given), replicate column 1 of 3) was 51385 and the “Fluorescence competitive binding assay, OBP2 (raw fluorescence reading)” value ([3]; ligand concentration 6 (unit not given), replicate column 2 of 3) was 38065. The “Fluorescence competitive binding assay, OBP2 (raw fluorescence reading)” value ([3]; ligand concentration 6 (unit not given), replicate column 3 of 3) was 41844, the “Fluorescence competitive binding assay, OBP2 (raw fluorescence reading)” value ([3]; ligand concentration 8 (unit not given), replicate column 1 of 3) was 39886 and the “Fluorescence competitive binding assay, OBP2 (raw fluorescence reading)” value ([3]; ligand concentration 8 (unit not given), replicate column 2 of 3) was 44063. For the same compound, the “Fluorescence competitive binding assay, OBP2 (raw fluorescence reading)” value ([3]; ligand concentration 8 (unit not given), replicate column 3 of 3) was 42977, the “Fluorescence competitive binding assay, OBP2 (raw fluorescence reading)” value ([3]; ligand concentration 10 (unit not given), replicate column 1 of 3) was 53038 and the “Fluorescence competitive binding assay, OBP2 (raw fluorescence reading)” value ([3]; ligand concentration 10 (unit not given), replicate column 2 of 3) was 51904. The “Fluorescence competitive binding assay, OBP2 (raw fluorescence reading)” value ([3]; ligand concentration 10 (unit not given), replicate column 3 of 3) was 31312, the “Fluorescence competitive binding assay, OBP2 (raw fluorescence reading)” value ([3]; ligand concentration 12 (unit not given), replicate column 1 of 3) was 66556 and the “Fluorescence competitive binding assay, OBP2 (raw fluorescence reading)” value ([3]; ligand concentration 12 (unit not given), replicate column 2 of 3) was 51896. The “Fluorescence competitive binding assay, OBP2 (raw fluorescence reading)” value ([3]; ligand concentration 12 (unit not given), replicate column 3 of 3) was 78968, the “Fluorescence competitive binding assay, OBP2 (raw fluorescence reading)” value ([3]; ligand concentration 14 (unit not given), replicate column 1 of 3) was 59847 and the “Fluorescence competitive binding assay, OBP2 (raw fluorescence reading)” value ([3]; ligand concentration 14 (unit not given), replicate column 2 of 3) was 56230. For the same compound, the “Fluorescence competitive binding assay, OBP2 (raw fluorescence reading)” value ([3]; ligand concentration 14 (unit not given), replicate column 3 of 3) was 65733, the “Fluorescence competitive binding assay, OBP2 (raw fluorescence reading)” value ([3]; ligand concentration 16 (unit not given), replicate column 1 of 3) was 57526 and the “Fluorescence competitive binding assay, OBP2 (raw fluorescence reading)” value ([3]; ligand concentration 16 (unit not given), replicate column 2 of 3) was 53371. The “Fluorescence competitive binding assay, OBP2 (raw fluorescence reading)” value ([3]; ligand concentration 16 (unit not given), replicate column 3 of 3) was 59678, the “Fluorescence competitive binding assay, OBP2 (raw fluorescence reading)” value ([3]; ligand concentration 18 (unit not given), replicate column 1 of 3) was 69952 and the “Fluorescence competitive binding assay, OBP2 (raw fluorescence reading)” value ([3]; ligand concentration 18 (unit not given), replicate column 2 of 3) was 81927. For the same compound, the “Fluorescence competitive binding assay, OBP2 (raw fluorescence reading)” value ([3]; ligand concentration 18 (unit not given), replicate column 3 of 3) was 73816, the “Fluorescence competitive binding assay, OBP2 (raw fluorescence reading)” value ([3]; ligand concentration 20 (unit not given), replicate column 1 of 3) was 72726 and the “Fluorescence competitive binding assay, OBP2 (raw fluorescence reading)” value ([3]; ligand concentration 20 (unit not given), replicate column 2 of 3) was 69859. For the same compound, the “Fluorescence competitive binding assay, OBP2 (raw fluorescence reading)” value ([3]; ligand concentration 20 (unit not given), replicate column 3 of 3) was 85793, the “Fluorescence competitive binding assay, fluorescence intensity” value ([4]; ligand concentration 2) was 79169 and 74941 and 94761 and the “Fluorescence competitive binding assay, fluorescence intensity” value ([4]; ligand concentration 4) was 75066 and 75962 and 116353. The “Fluorescence competitive binding assay, fluorescence intensity” value ([4]; ligand concentration 6) was 80726 and 113361 and 131059, the “Fluorescence competitive binding assay, fluorescence intensity” value ([4]; ligand concentration 8) was 127533 and 115294 and 124955 and the “Fluorescence competitive binding assay, fluorescence intensity” value ([4]; ligand concentration 10) was 151439 and 140422 and 180514. For the same compound, the “Fluorescence competitive binding assay, fluorescence intensity” value ([4]; ligand concentration 12) was 128094 and 97542 and 122147, the “Fluorescence competitive binding assay, fluorescence intensity” value ([4]; ligand concentration 14) was 143468 and 130975 and 143763 and the “Fluorescence competitive binding assay, fluorescence intensity” value ([4]; ligand concentration 16) was 147668 and 180253 and 155136. The “Fluorescence competitive binding assay, fluorescence intensity” value ([4]; ligand concentration 18) was 151347 and 96227 and 180613 and the “Fluorescence competitive binding assay, fluorescence intensity” value ([4]; ligand concentration 20) was 179130 and 144685 and 179646.
